The source of these data is paper PMC3849007 (Journal of Experimental & Clinical Cancer Research : CR, 2013).

A word on the melting point: it is the temperature, or range, at which the solid turns liquid. Broadly, the GI50 is the concentration giving 50% growth inhibition.

One data set relates to NCI60 panel. The data set can be described thus: NCI60 panel growth inhibition. Format: cell-based, human.
For another data set, the system named is BJ-hTERT fibroblasts. Put plainly: Proliferation assay, normal telomerised fibroblasts. Format: cell-based, human. The conditions noted are these: 0.5 μM, culture day 2 to 8. The protocol:
(§1) BJ fibroblasts expressing hTERT (BJ-hTERT) or hTERT and SV40 early region (BJ-EHLT), were obtained as previously reported. Cells were grown in Dulbecco Modified Eagle Medium (D-MEM, Invitrogen Carlsbad, CA, USA) supplemented with 10% fetal calf serum, 2 mM L-glutamin and antibiotics.
(§2) 5 × 10^4 cells were seeded in 60-mm Petri plates (Nunc, MasciaBrunelli, Milano, Italy) and 24 h after plating, 0.5 μM of freshly dissolved compound was added to the culture medium. Cell counts (Coulter Counter, Kontron Instruments, Milano, Italy) and viability (trypan blue dye exclusion) were determined daily, from day 2 to day 8 of culture.

The test system of the next data set is BJ-EHLT fibroblasts. Put plainly: Proliferation assay, transformed fibroblasts. It counts as cell-based, human. The conditions noted are these: 0.5 μM, culture day 2 to 8. The protocol:
as §1, §2

For data set [1], the system named is Telomere dysfunction Induced Foci in BJ-EHLT fibroblasts. Put plainly: TIF analysis (γH2AX/TRF1 co-localization). The conditions noted are these: 24 hrs. It counts as cell-based, human. The protocol: (§3) Cells were fixed in 2% formaldehyde and permeabilized in 0.25% Triton X100 in PBS for 5 min at room temperature. For immunolabeling, cells were incubated with primary antibody, then washed in PBS and incubated with the secondary antibodies. The following primary antibodies were used: pAb and mAb anti-TRF1 (Abcam Ltd.; Cambridge UK); mAb (Upstate, Lake Placid, NY) and pAb anti-γH2AX (Abcam). The following secondary antibody were used: TRITC conjugated Goat anti Rabbit, FITC conjugated Goat anti Mouse (Jackson ImmunoResearch Europe Ltd., Suffolk, UK). Fluorescence signals were recorded by using a Leica DMIRE2 microscope equipped with a Leica DFC 350FX camera and elaborated by a Leica FW4000 deconvolution software (Leica, Solms, Germany). This system permits to focus single planes inside the cell generating 3D high-resolution images. For quantitative analysis of γH2AX positivity, 200 cells on triplicate slices were scored. For TIF’s analysis, in each nucleus a single plane was analyzed and at least 50 nuclei per sample were scored.

Data set [2] deals with T1, human recombinant β2 adrenergic receptor (Homo sapiens, UniProt P07550).
T1 construct: expressed in transfected cells; host or cells: CHO
T1 sequence (P07550 whole entry): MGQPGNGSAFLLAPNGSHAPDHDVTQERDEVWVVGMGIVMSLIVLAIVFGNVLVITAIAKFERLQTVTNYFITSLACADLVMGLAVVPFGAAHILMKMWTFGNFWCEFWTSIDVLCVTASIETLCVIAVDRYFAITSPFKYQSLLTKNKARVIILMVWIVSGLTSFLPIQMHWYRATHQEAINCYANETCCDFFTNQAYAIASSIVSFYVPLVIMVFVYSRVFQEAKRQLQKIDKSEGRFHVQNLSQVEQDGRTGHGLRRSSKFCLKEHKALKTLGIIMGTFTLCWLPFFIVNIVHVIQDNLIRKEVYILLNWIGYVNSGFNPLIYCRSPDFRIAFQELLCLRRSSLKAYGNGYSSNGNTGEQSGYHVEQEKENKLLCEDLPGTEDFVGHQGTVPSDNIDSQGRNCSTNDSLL
Put plainly: β2-adrenergic receptor binding assay (CHO expressing cells). The protocol:
(§4) For hERG study, HEK293 cells were cultured (1–7 days) in DMEM/GlutaMax-1 + 10% FBS and were plated on collagen-coated dishes (about 2×10^4 cells/dish). The cell was held at -80 mV. A 50-millisecond pulse to -40 mV was delivered to measure the leaking currents, which were subtracted from the tail currents online. […] This paradigm was delivered once every 5 seconds to monitor the current amplitude. After the current amplitude stabilized, the test compound was delivered to the extracellular medium by a rapid solution changer perfusion system. During perfusion, the cell was repetitively stimulated with the protocol described above, and the current amplitude was continuously monitored. Data were acquired and analyzed by using pClamp (Axon Instruments), and Excel (Microsoft), and are reported as mean and individual values. The degree of inhibition (%) was obtained by measuring the tail current amplitude before and after drug superfusion (the difference current was normalized to control and multiplied by 100 to obtain the percent of inhibition). […] The concentration-response relationship of each compound was constructed from the percentage reductions of current amplitude by sequential concentrations. β2-adrenergic receptor CHO expressing cells were used for the receptor inhibition assay as described. The results are expressed as a percent of inhibition of control specific binding (100 - (measured specific binding/control specific binding) × 100)) obtained in the presence of the test compounds. The specific ligand binding to the receptors is defined as the difference between the total binding and the nonspecific binding determined in the presence of an excess of unlabelled ligand. All the in-vivo experiments were carried out at the Regina Elena Cancer Institute.
Inhibition of receptor was reported as inhibition of control specific binding (100 - (measured specific binding/control specific binding) × 100) obtained in the presence of the test compounds.

Data set [3] deals with h-Tel quadruplex (Q) DNA, 5'-biotin-d[AG3(T2AG3)3] (DNA, G4) AGGGTTAGGGTTAGGGTTAGGG
The data set can be described thus: surface plasmon resonance. Conditions: 200 mM KCl; 10 mM HEPES, 3 mM EDTA, 0.01% P20, pH 7.4.

In data set [4] the test system is duplex (D) DNA hairpin, 5'-biotin-CGA3T3C(CT)2GA3T3CG (DNA, hairpin) CGAAATTTCCTCTGAAATTTCG
Put plainly: surface plasmon resonance. Conditions: 200 mM KCl; 10 mM HEPES, 3 mM EDTA, 0.01% P20, pH 7.4. A general note: In SPR one partner is held on a chip, and binding of the other changes the refractive index at the surface.

The test system of data set [5] is γH2AX in BJ-EHLT fibroblasts. Put plainly: Immunofluorescence for γH2AX (DNA damage response). Format: cell-based, human. Conditions: 0.5 μM, 24 hrs. The protocol:
as §3

The test system of data set [6] is telomere aberrations in BJ-EHLT fibroblasts. Put plainly: Telomere FISH on metaphase spreads. It counts as cell-based, human. The conditions noted are these: 0.5 μM, 72 hrs. The protocol: For metaphase chromosome preparation cells were treated with demecolcine (Sigma, Milan, Italy) 0.1 mg/ml for 4 h and then harvested and washed in 75 mM KCl for 5 min at 37°C. After centrifugation cells were fixed in MeOH/acetic acid 3:1 overnight and then spread on slides. Hybridization with rhodamine-coupled PNA was performed as described. For each sample 20 metaphases per slice on triplicate were scored. Images of the metaphases were captured with a 100 × objective.

The test system of data set [7] is h-Tel 5'-d[AGGG(TTAGGG)3]-3' (DNA, G4) AGGGTTAGGGTTAGGGTTAGGG
Put plainly: CD melting at 290 nm. The conditions noted are these: 110 mM K+ (100 mM KCl, potassium phosphate); 10 mM potassium phosphate, pH 7.0; 4 μM DNA, 3.5 mol equiv. ligand; Tm 89 ± 3.

For data set [8] the test system is unchanged. Put plainly: CD spectroscopy, induced anti-parallel structure. Conditions: no significant K+; 298 K; 3.5 molar equivalents of ligand; band at 290 nm emerges.
In data set [9] the test system is h-Tel (anti-parallel) quadruplex. The data set can be described thus: CD thermal unfolding of h-Tel quadruplex. It counts as binding, human. The protocol:
CD spectra were recorded on an Applied Photophysics Pi-Star-180 spectrophotometer (Applied Photophysics Ltd, Surrey, UK). The optical system was configured with a 75 W Xe lamp, circular light polarizer and end-mounted photomultiplier. The instrument had previously been calibrated with (D)-camphorsulfonic acid. Temperature was regulated using a Neslab RTE-300 circulating programmable water bath (Neslab Inc). CD spectra were recorded at 298 K in a 10 mm path length cell over a wavelength range of 215–345 nm in steps of either 1 0r 2 nm, with 3 nm entrance/exit slit widths: the number of counts was set to 10,000 with adaptive sampling set to 500,000. The spectra were corrected by subtracting the spectrum of the same buffer solution of 100 mM potassium chloride and 10 mM potassium phosphate at pH 7.0. Annealing and melting profiles were recorded using a thermoelectric temperature controller (Melcor) on 4 μM DNA samples with and without 3.5 mol.equiv. of ligands using 0.5 K temperature increments and a cooling or heating rate of 0.2 K/min over the temperature range 298-368 K.
This analysis was extended to examine the effects of ligand binding on thermal stability by measuring the unfolding curves at 290 nm of the complexes formed in K^+ solution, corresponding to the CD spectra shown in Figure 4a. Monitoring the thermal unfolding transition for h-Tel produces a sigmoidal unfolding curve with a transition mid-point Tm value of 72 ± 3°C (Figure 4c). All three ligands show significant effects in enhancing the stability of the quadruplex by shifting the Tm values to higher temperatures (∆Tm ~ 15-19°C compared to h-Tel without bound ligands) (Table 1).

Data set [10] has as its system h-Tel quadruplex DNA 5′-d[AGGG(TTAGGG)3]-3′. Put plainly: Surface plasmon resonance, quadruplex DNA. The conditions noted are these: for Surface plasmon resonance K, Quadruplex (Q) DNA: 10 mM HEPES, 200 mM KCl, 3 mM EDTA, 0.01% P20, pH 7.4, equilibrium binding constant.
In another data set the target is T2, hERG (Homo sapiens, UniProt Q12809).
T2 construct: expressed in transfected cells; host or cells: HEK293
T2 sequence (Q12809 whole entry): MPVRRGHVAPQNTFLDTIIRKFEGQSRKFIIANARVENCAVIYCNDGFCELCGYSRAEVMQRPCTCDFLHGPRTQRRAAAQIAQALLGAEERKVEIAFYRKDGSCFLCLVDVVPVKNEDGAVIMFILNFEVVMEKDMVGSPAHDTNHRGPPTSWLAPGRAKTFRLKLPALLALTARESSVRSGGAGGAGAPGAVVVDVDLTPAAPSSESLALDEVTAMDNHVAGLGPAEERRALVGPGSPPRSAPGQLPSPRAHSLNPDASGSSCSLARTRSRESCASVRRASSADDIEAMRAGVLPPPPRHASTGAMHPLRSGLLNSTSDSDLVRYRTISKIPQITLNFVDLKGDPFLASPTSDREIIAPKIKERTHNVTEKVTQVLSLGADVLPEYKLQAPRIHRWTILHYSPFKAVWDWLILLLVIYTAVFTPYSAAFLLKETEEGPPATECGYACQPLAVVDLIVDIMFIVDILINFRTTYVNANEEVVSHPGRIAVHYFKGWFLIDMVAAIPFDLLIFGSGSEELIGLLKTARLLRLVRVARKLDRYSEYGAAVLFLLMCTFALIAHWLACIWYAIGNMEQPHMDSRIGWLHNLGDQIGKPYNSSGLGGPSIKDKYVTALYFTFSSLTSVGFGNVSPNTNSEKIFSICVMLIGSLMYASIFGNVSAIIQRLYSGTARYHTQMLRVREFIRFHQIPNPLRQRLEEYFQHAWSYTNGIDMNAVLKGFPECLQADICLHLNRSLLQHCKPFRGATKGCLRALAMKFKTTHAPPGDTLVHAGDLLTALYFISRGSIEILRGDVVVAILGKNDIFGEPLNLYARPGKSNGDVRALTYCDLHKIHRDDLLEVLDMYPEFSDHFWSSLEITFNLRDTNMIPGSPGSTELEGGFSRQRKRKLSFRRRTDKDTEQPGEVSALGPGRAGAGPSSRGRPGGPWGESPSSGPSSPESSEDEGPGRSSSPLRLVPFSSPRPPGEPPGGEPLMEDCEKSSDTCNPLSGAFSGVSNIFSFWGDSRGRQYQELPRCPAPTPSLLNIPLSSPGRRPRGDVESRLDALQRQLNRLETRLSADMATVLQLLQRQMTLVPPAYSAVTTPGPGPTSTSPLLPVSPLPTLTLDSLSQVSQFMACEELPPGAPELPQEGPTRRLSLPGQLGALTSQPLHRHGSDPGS
Put plainly: hERG tail current inhibition, patch clamp assay. It counts as cell-based. The conditions noted are these: human, HEK293 cells (hERG study), 10 μM, HEK293 cells, read-out: hERG % inhib. (10 μM). The protocol: as §4, with “Institute. All procedures involving animals and care were performed in compliance with our institutional animal care guidelines and with international directives (directive 2010/63/EU of the European parliament and of the council; Guide for the Care and Use of Laboratory Animals, United States National Research Council, 2011).” for “Institute.”
(hERG is a cardiac potassium channel; its block is linked to QT prolongation.)

Counter-ions that a name gives are not always drawn.

For `CC[n+]1c2c3c(cc(C)cc3c3cc(F)ccc31)N(C)c1ccc(F)cc1-2` (as salt: sulfate) [Compound 8, 13-Ethyl-3,11-difluoro-6,8-dimethyl-8H-quino[4,3,2-kl]acridinium trifluoromethosulfate], the melting point was > 250 °C (dec.).
Regarding `CC(=O)Nc1ccc2c3cccc4c3c([n+](C)c2c1)-c1ccccc1N4C` [Compound 2, 2-Acetylamino-8,13-dimethyl-8H-quino[4,3,2-kl]-acridinium iodide], in the data set on NCI60 panel (Homo sapiens, NCI data, read-out: Mean GI50 value from the NCI60 panel), the GI50 is 12 µM. Further, in the data set on NCI60 panel (several human cancer cell lines), the “effect on cell proliferation in a panel of different histotype tumor cell lines” value is given as “maintained an anti-proliferative effect”. Further, the “inhibition of cell proliferation in normal telomerized fibroblasts” value in the data set on BJ-hTERT fibroblasts is given as “did not induce inhibition of cell proliferation”. Further, in the data set on BJ-EHLT fibroblasts, the “day of maximum effect on cell proliferation” value worked out at 6 days. In addition, the “percentage of TIF-positive cells” value in data set [1] (cells with more than four γH2AX/TRF1 co-localizations) is on record as “comparable levels with respect to 1”. In data set [1] (mean), the “number of TIFs per nucleus” value is given as “ca. eight”. Also, the inhibition at 10 µM in [2] (10 μM, inhibition of control specific binding, CHO cells, read-out: B2 adrenergic % inhib. (10 μM)) was 24%. Moreover, the “decay of β2-adrenergic receptor inhibition compared to 1” value in [2] (comparing 1 to the compound) is given as 75%. Further, the K in [3] is 1.5e+07 M⁻¹; in data set [4], 400000 M⁻¹. For the same compound, the “percentage of cells positive for γH2AX” value in data set [5] is on record as “quite similar to compound 1”. The “telomere aberrations (telomere doublets, sister telomere fusions)” value in [6] is listed as “quantitatively similar to the lead compound”. For the same compound, the “∆Tm” value in data set [7] came to 19 °C. Also, in [8], the binding entry is listed as “yes”. In addition, the “CD study thermal stability ∆Tm” value in data set [9] (compared to h-Tel without bound ligand (Tm 70 ± 3)) stood at 19 °C. Further, in [9] (h-Tel 4 μM with 3.5 mol.equiv. ligand, K+ solution, unfolding at 290 nm), the “CD study thermal stability Tm” value came to 89 ± 3 °C. Besides, the “Surface plasmon resonance K, Quadruplex (Q) DNA” value in data set [10] turned out to be 1.5e+07 M⁻¹.
In the case of `CC[n+]1c2c3c(cc(C)cc3c3cc(F)ccc31)N(C)c1ccc(F)cc1-2` [Compound 8, 13-Ethyl-3,11-difluoro-6,8-dimethyl-8H-quino[4,3,2-kl]acridinium trifluoromethosulfate], at hERG, the inhibition at 10 µM was determined as 18%. In addition, in [10], the “Surface plasmon resonance K, Quadruplex (Q) DNA” value turned out to be 600000 M⁻¹. In data set [10] (relative to compound 1), the “fold reduction in on-target effect against h-Tel DNA sequence (SPR) relative to 1” value is recorded as over 10 fold.
In the case of `CC[n+]1c2c3c(cc(C)cc3c3cc(F)ccc31)N(C)c1ccc(F)cc1-2`, the K in data set [3] worked out at 600000 M⁻¹.
